Results: patent US8975410B2, “Crystal forms of 5-[3-(2,5-dichloro-4, 6-dimethyl-1-oxy-pyridine-3-yl)[1,2,4] oxadiazol-5-yl]-3-nitrobenzene-1,2-diol” (BIAL—Portela & CA., S.A., priority 2008, dated 2015)

Columns and labels:
[1] = interconversion experiments of the polymorphs; settings: for stability class of the polymorph: conclusion from interconversion experiments
[2] = about 5% to about 95% relative humidity at 25° C. over a period of 3 months
[3] = drying under vacuum at ambient temperature or at 60° C.

Row | Structure (SMILES) | stability class of the polymorph [1] | polymorphic conversion in interconversion experiments [1] | polymorph produced on drying [3] | also measured
1 | Cc1c(Cl)c(C)[n+]([O-])c(Cl)c1-c1noc(-c2cc(O)c(O)c([N+](=O)[O-])c2)n1 [polymorph A, 5-[3-(2,5-dichloro-4,6-dimethyl-1-oxy-pyridin-3-yl)-[1,2,4]oxadiazol-5-yl]-3-nitrobenzene-1,2-diol] | thermodynamically stable polymorph | – | – | hygroscopicity [2]: non-hygroscopic
2 | Cc1c(Cl)c(C)[n+]([O-])c(Cl)c1-c1noc(-c2cc(O)c(O)c([N+](=O)[O-])c2)n1 [polymorph E, 5-[3-(2,5-dichloro-4,6-dimethyl-1-oxy-pyridin-3-yl)-[1,2,4]oxadiazol-5-yl]-3-nitrobenzene-1,2-diol] | – | convert into polymorph A or B | produced polymorph A | –
3 | Cc1c(Cl)c(C)[n+]([O-])c(Cl)c1-c1noc(-c2cc(O)c(O)c([N+](=O)[O-])c2)n1 [polymorph D, 5-[3-(2,5-dichloro-4,6-dimethyl-1-oxy-pyridin-3-yl)-[1,2,4]oxadiazol-5-yl]-3-nitrobenzene-1,2-diol] | – | convert into polymorph A or B | – | –
4 | Cc1c(Cl)c(C)[n+]([O-])c(Cl)c1-c1noc(-c2cc(O)c(O)c([N+](=O)[O-])c2)n1 [polymorph B, 5-[3-(2,5-dichloro-4,6-dimethyl-1-oxy-pyridin-3-yl)-[1,2,4]oxadiazol-5-yl]-3-nitrobenzene-1,2-diol] | kinetically stable polymorphs | – | – | polymorphic conversion when slurried in water ([1]; slurried in water containing crystal seeds of modification A over prolonged periods of time): converts into polymorph A
5 | Cc1c(Cl)c(C)[n+]([O-])c(Cl)c1-c1noc(-c2cc(O)c(O)c([N+](=O)[O-])c2)n1 [polymorph F, 5-[3-(2,5-dichloro-4,6-dimethyl-1-oxy-pyridin-3-yl)-[1,2,4]oxadiazol-5-yl]-3-nitrobenzene-1,2-diol] | – | convert into polymorph A or B | – | –
6 | Cc1c(Cl)c(C)[n+]([O-])c(Cl)c1-c1noc(-c2cc(O)c(O)c([N+](=O)[O-])c2)n1 [polymorph C, 5-[3-(2,5-dichloro-4,6-dimethyl-1-oxy-pyridin-3-yl)-[1,2,4]oxadiazol-5-yl]-3-nitrobenzene-1,2-diol] | – | convert into polymorph A or B | produced polymorph B | –
